Test results from a melting point compilation (Tetko et al.).

melting point [°C] | SMILES
119 to 121 | O=C(O)c1ccccc1OCc1ccc(Br)cc1
240 to 242 | Cc1ccc(-n2nc(C(=O)O)ccc2=O)cc1Cl
79 to 81 | CCNC(=O)COc1cccc(C(C)N)c1 (centres undefined)
146 to 148 | Nc1ccc(OCc2cn3ccccc3n2)cc1
179 to 181 | O=C(O)c1coc(-c2ccccc2Cl)n1
138 to 140 | Cc1cc2nc(Cl)c3ccccc3n2n1
51 to 53 | Clc1nc(-c2ccccc2)ns1
125 to 127 | Nc1ccc(-c2csnn2)cc1
125 to 127 | NC(=S)Nc1ccccc1Oc1ccccc1
210 to 212 | O=C(O)/C=C/c1ccc(OCc2ccccn2)cc1
156 to 158 | Nc1ncn(Cc2ccc(Cl)cc2)n1
174 to 176 | Cc1cc(Cl)ccc1OCc1n[nH]c(-c2ccccn2)n1
149 to 151 | O=C(CO)Nc1ccc(Oc2ccccc2)cc1
337 to 339 | Nc1nc2ccc(C(=O)O)cc2o1
77 to 79 | CCCCOc1ccc(-c2nnc(CCl)o2)cc1
67 to 69 | N#CCc1ccc(Oc2ccc(N)cn2)cc1
145 to 147 | COc1ccc(C(N)=O)c(O)c1
172 to 174 | Cc1ccc(Nc2nnc(S)s2)c(C)c1
106 to 108 | COc1cc(C)ccc1Oc1ccc(N)cn1
96 to 98 | O=c1cc(CO)occ1OCc1ccccc1
207 to 209 | Nc1c(C(=O)O)ccc2cccnc12
94 to 96 | Cc1c(N)cccc1COc1ccccc1

melting point [°C] | SMILES
47 to 49 | ClCc1nc(-c2cccc(Br)c2)no1
253 to 255 | O=C(O)c1ccc(-c2ccc(Cl)c(Cl)c2)s1
122 to 130 | CSCCC(NC(=O)COc1ccccc1)C(=O)O (centres undefined)
141 to 143 | O=C(O)CCCn1c(=O)oc2ccccc21
177 to 179 | Nc1ccccc1-c1nc(-c2ccccc2)n[nH]1
74 to 76 | Fc1ccc(-c2cc(CBr)on2)cc1
161 to 163 | Oc1nc(-c2ccccc2Cl)no1
103 to 105 | O=C1C=CC(=O)N1c1cccc2ccccc12
248 to 250 | CCc1ccc(-c2cnnc(N)n2)cc1
183 to 185 | Cc1nccn1-c1ccc(C(F)(F)F)cc1N
152 to 154 | Cc1nnnn1C(Cc1ccc(F)cc1)C(=O)O (centres undefined)
177 to 179 | Sc1nc2ccccc2n1CCc1ccccc1
249 to 251 | Cc1c(C)n(-c2ccc(Cl)cc2)c2ncnc(N)c12
112 to 114 | O=C(O)CCOc1ccccc1F
53 to 57 | ClCc1ncc(-c2ccc(Cl)cc2)o1
158 to 160 | Cn1c(S)nnc1Cc1ccccc1
38 to 40 | COc1cccc(-c2noc(CCl)n2)c1
243 to 245 | Nc1nnc(CCc2ccccc2)c(=O)n1N
197 to 199 | O=C(O)CC(O)c1ccc(Cl)cc1 (centres undefined)
232 to 234 | Nc1nnc(-c2ccc(F)cc2F)o1
85 to 87 | O=C(O)c1ccccc1OCc1ccc(Cl)cc1
56 to 58 | COC(=O)c1cccc(OCC(F)(F)F)c1

Continued, molecule first:

SMILES | melting point [°C]
COc1cc(C)sc1C(=O)O | 159 to 161
Cc1nnc(SCCC(=O)O)[nH]1 | 131 to 133
Cc1ccc(-n2nc(C(=O)O)c3c2CCC3)c(F)c1 | 219 to 221
CC(Cl)C(=O)Nc1ncc(Cl)cc1Cl (centres undefined) | 113 to 115
COc1cc2c(c(OC)c1)C(=O)C(=O)N2 | 289 to 291
COC(=O)c1occc1CC#N | 62 to 64
O=C(O)c1ccc(N2CCOCC2)c(F)c1 | 220 to 222
Oc1ncnc(Cl)c1I | 274 to 276
Cc1cc(C)c(C)c(OCCC(=O)O)c1 | 129 to 131
O=C(O)CCc1cc(Cl)cs1 | 69 to 71
c1n[nH]cc1C1CCCNC1 (centres undefined) | 71 to 73
N#CC1(N)CCCCC1 | 25 to 27
C=CC(=O)ON=C(N)c1cccc(Cl)c1 | 114 to 116
Nc1ccnn1CC1CCCCC1 | 59 to 61
CN(C1CCCCC1)S(=O)(=O)c1ccc(S)nc1 | 175 to 177
CC(C)C(=O)N1CCCC(C(=O)O)C1 (centres undefined) | 131 to 133
O=C(Cc1nc2ccccc2n1C(F)F)c1cccs1 | 123 to 125
CCCSc1nsc(N)n1 | 54 to 56
Nc1ccc(CN2CCOCC2)cn1 | 119 to 121
COCc1nc(C)c(C(=O)O)s1 | 159 to 161
NC(=O)C1CCCCS1 (centres undefined) | 164 to 166
NCc1cccc(N)n1 | 93 to 95
Cc1cc([N+](=O)[O-])sc1Br | 37 to 39
COc1cc(CC#N)ccc1[N+](=O)[O-] | 84 to 86
O=C(O)c1cc(=O)[nH]c2ccc([N+](=O)[O-])cc12 | 375 to 377

SMILES | melting point [°C]
COc1n[nH]c(N)c1C#N | 179 to 181
CC(C)N1CCCC(Br)C1=O (centres undefined) | 52 to 54
CC1Oc2c(C(=O)O)cccc2C1C (centres undefined) | 96 to 100
CC(=O)NCc1ccc(N)cc1 | 92 to 94
NC(C(=O)O)c1ccc(Br)cc1 (centres undefined) | 249 to 251
CCOc1cc(C(=O)N(C)C)ccc1N | 107 to 109
Cc1nn(C)c(C(F)(F)F)c1C(=O)O | 213 to 215
Cc1cccc(N2C(=O)NC(CCC(=O)O)C2=O)c1 (centres undefined) | 158 to 160
Cc1cc(C)n2ncc(C(N)=NO)c2n1 | 227 to 229
O=S(=O)(CCN1CCC(O)CC1)c1ccc(Br)cc1 | 117 to 119
NS(=O)(=O)c1ccc(C(=O)O)c(F)c1 | 189 to 191
CCN(CC)c1nc2sc(C(=O)O)cc2s1 | 191 to 193
CC(C)Cc1nc(C#N)c(NN)o1 | 102 to 104
Cc1ccc(-n2nnnc2S)c(C)c1 | 110 to 112
COc1ccc(C(N)C(=O)O)cc1OC (centres undefined) | 218 to 220
Nc1ncc(C=NO)s1 | 211 to 213
O=C(O)CCCNC(=O)NC1CCCCC1 | 153 to 155
O=C1CCc2cc3c(cc21)OCCO3 | 118 to 120
COc1ccc(C(C)=O)cc1NC(C)=O | 120 to 122
O=C1CNC2(CCCCC2)C(=O)N1 | 184 to 186
O=C(O)C1Cc2nc[nH]c2C(c2ccccc2)N1 (centres undefined) | 209 to 211
NS(=O)(=O)c1ccc(Sc2ccccc2C(=O)O)cc1 | 226 to 228
Nc1ccccc1Cn1ccnc1 | 81 to 83
O=C(Nc1cn[nH]c1)OCC(F)(F)F | 151 to 153
N#Cc1cc2c([nH]c1=O)CCN(CCc1ccccc1)C2 | 219 to 221

SMILES | melting point [°C]
O=C(O)c1ccc(S(=O)(=O)Cl)s1 | 119 to 121
CCOC(OCC)c1nnc[nH]1 | 59 to 61
O=C(O)c1ccccc1NS(=O)(=O)c1cccc([N+](=O)[O-])c1 | 185 to 187
CC(C(=O)O)N1C(=O)NC2(CCCC2)C1=O (centres undefined) | 223 to 225
O=C(O)C(F)(F)c1ccc([N+](=O)[O-])cc1 | 129 to 131
CN(C)S(=O)(=O)c1ccc(N2CCCCC2)c(C(=O)O)c1 | 135 to 137
BrC1=CC2C(C3C=CC2(Br)C32OCCO2)C12OCCO2 (centres undefined) | 178 to 180
Cc1ccc(C(=O)Nc2ccccc2)cc1N | 151 to 153
CC(=O)NC1CCC(N)CC1 (centres undefined) | 129 to 131
Nc1ccc(N2CCCCC2)c(Cl)c1 | 53 to 55
O=C(O)c1csc(C(=O)O)c1 | 279 to 281
Cn1c(=O)[nH]c(=O)c2cc(S(N)(=O)=O)cnc21 | 311 to 313
Nc1nc2c(OC(F)F)cccc2s1 | 144 to 146
CC(C)(C)n1cnc(N)n1 | 135 to 137
O=C(CCl)Nc1cc(C(F)(F)F)ccc1Cl | 71 to 73
Nc1cccc(S(=O)(=O)Nc2cccc(C(F)(F)F)c2)c1 | 98 to 100
Nc1cccc(OCC(=O)N2CCCC2)c1 | 101 to 103
CC1(C)Cc2ccc(Cl)cc2C1O (centres undefined) | 94 to 96
O=C1CCCC1c1ccccc1 (centres undefined) | 35 to 37
Cc1ccc(C(C)C)c(Oc2ccc(C=O)cc2[N+](=O)[O-])c1 | 109 to 111
CC(C)(C)c1ccc(C(O)CCC(=O)O)cc1 (centres undefined) | 127 to 129
O=S1(=O)CC(SCc2ccccc2)c2ccccc21 (centres undefined) | 72 to 74
Nc1ccc(S)c(Cl)c1 | 78 to 80
NC1CCN(c2ccc(Cl)c(F)c2)C1=O (centres undefined) | 69 to 71
COc1ccccc1NC(=O)c1ccc(NC(=O)C(C)Cl)cc1 (centres undefined) | 149 to 151

SMILES | melting point [°C]
CC(C)(C)NC(=O)c1ccc(N)cc1 | 124 to 126
Nc1cc(Br)ccc1I | 49 to 51
Cc1nn(C)c(SCC(=O)O)c1C=O | 126 to 128
O=C(CCl)Nc1ccccc1C(=O)O | 185 to 187
CC(NC(=O)c1cc(F)ccc1N)c1ccc(C#N)cc1 (centres undefined) | 139 to 141
COc1nc2sccn2c1C=O | 130 to 132
Nc1ccc(-n2cncn2)nc1 | 188 to 190
CCN(CC)C(=O)c1cccc(O)c1 | 80 to 82
O=C1CCCc2sccc21 | 38 to 40
CC(=O)c1ccc(S(=O)(=O)NCc2ccco2)cc1 | 107 to 109
CCOC(=O)c1sc2nc(CCl)[nH]c(=O)c2c1C | 190 to 192
O=[N+]([O-])c1cc(Br)ccc1S(=O)(=O)Cl | 95 to 97
O=C(O)Cc1cc(Cl)c2c(c1)OCCCO2 | 166 to 168
CCOC(=O)c1cn[nH]c1S(N)(=O)=O | 171 to 173
CC(=O)Nc1ccc(Br)cc1[N+](=O)[O-] | 104 to 106
O=C(O)CSCC(=O)Nc1cccc(Br)c1 | 63 to 65
NS(=O)(=O)C=Cc1ccc(F)cc1 | 148 to 150
COC(=O)NC(=O)CCl | 147 to 151
Cc1cc(C(=O)O)c(C)n1-c1cccc(Br)c1 | 158 to 160
NCCS(=O)(=O)c1ccc(Br)cc1 | 87 to 89
CC1CNC(=O)N(c2ccccc2)C1=O (centres undefined) | 174 to 176
Nc1ccc2nc(N3CCCC3)sc2c1 | 201 to 203
CN1CCC(n2ncc3cc(Br)cnc32)CC1 | 120 to 122
O=C(O)CCS(=O)c1ccc2c(c1)OCCCO2 (centres undefined) | 114 to 116
CC(=O)C(CN1C(=O)c2ccccc2C1=O)C(C)=O | 169 to 171
